Values of other authors in patent US7235236B2, “Polynucleotide encoding human adenylylcyclase VI and uses thereof for enhancing cardiac function” (priority 1995, dated 2007).

Tested on: GRK
Settings: chronic reduction of beta1-AR activation

CC(C)NCC(O)COc1ccc(COCCOC(C)C)cc1 (stereo not shown) [bisoprolol]
GRK activity after chronic treatment: downregulation of GRK activity
